Reference: US20100022559A1, “BISOXIMES AS FUNGICIDES” (BAYER CROPSCIENCE AG, priority 2006, published 2010)
Blank lines part the entries; values can stand above or below the compound they belong to.

Assay: logP determination by HPLC on a reversed-phase column (C 18), EEC Directive 79/831 Annex V.A8
Assay type: physicochemical
Settings: for chromatographic logP: reversed-phase HPLC column (C 18), HCO2H, HPLC reversed-phase column (C 18), 43° C., read-out: logP (HCO2H)
Method: The stated logP values were determined in accordance with EEC Directive 79/831 Annex V.A8 by HPLC (high performance liquid chromatography) on a reversed-phase column (C 18). Temperature: 43° C.

[1] = method marker [b], isomer A / isomer B / isomer mixture as noted in the cell
[2] = [a] acidic range, pH 2.3, 0.1% aqueous phosphoric acid and acetonitrile
[3] = [b] LC-MS, acidic range, pH 2.7, 0.1% aqueous formic acid and acetonitrile
[4] = [c] LC-MS, neutral range, pH 7.8, 0.001 molar aqueous ammonium bicarbonate solution and acetonitrile
[5] = method marker [a] (footnote not shown), isomer A / isomer B / isomer mixture as noted in the cell

SMILES: Cc1cccnc1C(=NOCCCON=C(c1ccccc1)c1ncccc1C)c1ccccc1 [compound 657]
logP (method marked [a] in Table 1): 4.17^[a]

SMILES: CCC(=NOCCCCCCON=C(C)c1cccc(C)n1)c1ncccc1C (single isomer, unassigned) [compound 532]
logP (value marked [b]): 3.99^b] (isomer )A

SMILES: CC(=NOCCCCON=C(C)c1nc(C)c(C)s1)c1nc(C)c(C)s1 [compound 125]
logP [1]: 5.59^[b]

SMILES: CC(=NOCC(C)(C)CON=C(c1ccccc1)c1cccc(C)n1)c1cccc(C)n1 (mixture of isomers) [Compound 880]
logP (value marked [b]): 4.72^[b]
logP (value marked [c]): 5.37^[c]

SMILES: C=C(CON=C(C)c1cccc(C)n1)CON=C(N)c1nc(C)c(Cl)c(C)n1 [compound 184]
logP [1]: 2.61^[b]

SMILES: Cc1cccc(C(=NOCC2(CON=C(c3cccc(C)n3)C3CC3)CC(c3ccccc3Cl)=NO2)C2CC2)n1 (stereo not drawn) [compound 648]
logP (method marked [a] in Table 1): 4.46^[a]

SMILES: CC(=NOCCCCCCON=C(C)c1cccc(C)n1)c1ccccn1 [compound 388]
logP (value marked [b]): 4.41^[b]

SMILES: C=C(CON=C(C)c1ccc(Cl)s1)CON=C(C)c1ccc(Cl)s1 [compound 20]
logP [1]: 5.88^[b]

SMILES: C/C(=N\OCC(C)CON)c1cccc(C)n1 (racemic) [XII-11]
logP [2]: 0.7^[a]
logP [3]: 0.7^[b]
logP [4]: 2.15^[c]

SMILES: C=C(CON=C(C)c1ccccn1)CON=C(C)c1ccccn1 [compound 60]
logP [1]: 3.00^[b]

SMILES: CCCC(=NOCCCCON=C(C)c1cccc(C)n1)c1ncccc1C (single isomer, unassigned) [Compound 327]
logP (value marked [b]): 3.61^[b] (isomer A)

SMILES: C(=NOCCON=Cc1ccccn1)c1ccccn1 [compound 665]
logP (method marked [b] in Table 1): 1.68^[b]

SMILES: CC(=NOCCCCON=C(C)c1cccc(C)n1)c1ccncc1 [compound 440]
logP (value marked [b]): 1.88^[b]

SMILES: CCC(=NOCCCON=C(CC)c1ncccc1C)c1ncccc1C (single isomer, unassigned) [compound 95]
logP [5]: 3.11^[a] (isomer A)

SMILES: CCCC(=NOCC1(CON=C(CCC)c2cccc(C)n2)CC(C(C)(C)C)=NO1)c1cccc(C)n1 (stereo not drawn) [compound 620]
logP (method marked [b] in Table 1): 6.22^[b]

SMILES: Cc1cc(C)nc(/C(N)=N/OCc2cccc(CO/N=C(\N)c3cc(C)cc(C)n3)c2)c1 [compound 726]
logP (method marked [b] in Table 1): 3.63^[b]

SMILES: CC(=NOCC1CCCCC1ON=C(C)c1cccc(C)n1)c1cccc(C)n1 (stereo not drawn) [Compound 823]
logP (value marked [a]): 5.9^[a]

SMILES: CC(=NOCCCCCCON=C(C)c1cncc(C)n1)c1cccc(C)n1 [compound 466]
logP (value marked [b]): 4.8^[b]

SMILES: Cc1cc(C)nc(/C(N)=N/OCCCCO/N=C(\N)c2nc(C)cc(C)n2)n1 [compound 4]
logP [1]: 1.73^[b]

SMILES: C=C(CON=C(C)c1cccc(C)n1)CON=C(C)c1cccn1C [compound 197]
logP [1]: 4.37^[b]

SMILES: Cc1cccc(C(=NOCCCON=C(c2ccccc2)c2cccc(C)n2)c2ccccc2)n1 (mixture of isomers) [compound 656]
logP (method marked [a] in Table 1): 3.68^[a]

SMILES: CC(=NOCC(C)(C)CON=C(C)c1cccc(C)n1)c1ccc2c(c1)OCO2 [compound 412]
logP (value marked [b]): 5.08^[b]

SMILES: CC(=NOCC(C)CON=C(C)c1ccc(C)o1)c1ccc(C)o1 (mixture of isomers) [compound 585]
logP (method marked [a] in Table 1): 4.70^[a]

SMILES: C/C(=N\OCC(C)(C)CON)c1cc(C(F)(F)F)cc(C)n1 [XII-16]
logP [2]: 2.69^[a]
logP [3]: 2.69^[b]
logP [4]: 3.92^[c]

SMILES: C/C(=N\OCC(C)CON)c1cccc(-c2cccc(C)n2)n1 (racemic) [XII-5]
logP [3]: 1.35^[b]
logP [4]: 3.36^[c]

SMILES: C=C(CON=C(c1cccc(C)n1)C(C)C)CON=C(c1cccc(C)n1)C(C)C (single isomer, unassigned) [compound 275]
logP (value marked [a]): 4.90^[a] (isomer A)

SMILES: CCC(=NOCC1(CON=C(CC)c2cccc(C)n2)CC(C)=NO1)c1cccc(C)n1 (stereo not drawn) [compound 605]
logP (method marked [b] in Table 1): 3.42^[b]

SMILES: Cc1cccc(C(CC(C)C)=NOCCCON=C(CC(C)C)c2cccc(C)n2)n1 (single isomer, unassigned) [Compound 115]
logP [5]: 7.08^[a] (isomer B)

SMILES: CC(=NOCCCCON=C(c1ccccc1)c1ncccc1C)c1cccc(C)n1 [compound 325]
logP (value marked [b]): 3.89^[b]

SMILES: CC(=NOCC(C)CON=C(C)c1ncccc1C)c1ncccc1C (stereo not drawn) [compound 128]
logP [5]: 3.12^[a]

SMILES: CC(=NOCC1(CON=C(C)c2cccc(C)n2)CCCCC1)c1cccc(C)n1 [Compound 561]
logP (method marked [b] in Table 1): 6.09^[b]
logP (method marked [c] in Table 1): 7.15^[c]

SMILES: CC(=NOCCON=C(C)c1nc(C)cs1)c1nc(C)cs1 [compound 52]
logP [1]: 3.63^[b]

SMILES: CC(=NOCC(C)CON=C(C)c1cccc(C)[n+]1[O-])c1cccc(C)[n+]1[O-] (stereo not drawn) [compound 314]
logP (value marked [b]): 1.69^[b]

SMILES: CC(=NOCCCON=C(C)c1cc(C)ccn1)c1cc(C)ccn1 [compound 35]
logP [1]: 1.94^[b]

SMILES: N/C(=N\OC/C=C/CO/N=C(\N)c1nc(C2CC2)cc(C2CC2)n1)c1nc(C2CC2)cc(C2CC2)n1 [compound 722]
logP (method marked [b] in Table 1): 3.13^[b]

SMILES: COC(=NOCC(C)CON=C(OC)c1cccc(C)n1)c1cccc(C)n1 (stereo not drawn) [Compound 835]
logP (value marked [a]): 1.95^[a]

SMILES: CC(=NOCCCCON=C(C)c1ccccc1Cl)c1cccc(C)n1 [compound 379]
logP (value marked [b]): 4.85^[b]

SMILES: CCC(=NOCCCON=C(CC)c1ncccc1C)c1ncccc1C (single isomer, unassigned) [compound 94]
logP [5]: 3.65^[a] (isomer B)

SMILES: CCC(=NOCCON=C(CC)c1cccc(C)n1)c1cccc(C)n1 (mixture of isomers) [compound 222]
logP [5]: 3.77^[a]

SMILES: CC(=NOCCON=C(C)c1ncc(Cl)cc1Cl)c1ncc(Cl)cc1Cl [compound 55]
logP [1]: 5.39^[b]

SMILES: CCC(=NOCC1(CON=C(CC)c2cccc(C)n2)CC(c2ccc(Cl)cc2)=NO1)c1cccc(C)n1 (stereo not drawn) [compound 612]
logP (method marked [b] in Table 1): 5.84^[b]

SMILES: CCOC(=O)C(C)(CON=C(C)c1cc(C)cc(C)n1)CON=C(C)c1cc(C)cc(C)n1 (stereo not drawn) [compound 855]
logP (value marked [b]): 2.79^[b]
logP (value marked [c]): 5.72^[c]

SMILES: C=C(CON=C(C)c1nc(OC)cc(OC)n1)CON=C(C)c1nc(OC)cc(OC)n1 [compound 565]
logP (method marked [b] in Table 1): 4.10^[b]
logP (method marked [c] in Table 1): 4.10^[c]

SMILES: CC(=NOCC(C)CON=C(C)c1cccc(C(F)(F)F)n1)c1cccc(C(F)(F)F)n1 (stereo not drawn) [Compound 169]
logP [5]: 6.41^[a]

Second part, the compound after the results:

logP (value marked [a]): 2.46^[a]
SMILES: CC(=NOC(=O)NCCCC(C)CNC(=O)ON=C(C)c1cccc(C)n1)c1cccc(C)n1 (stereo not drawn) [compound 863]

logP (value marked [b]): 4.51^[b]
SMILES: CCC(=NOCC(C)CON=C(C)c1cccc(C)n1)c1cccc(C)n1 (stereo not drawn) [Compound 428]

chromatographic logP: 1.91
SMILES: C/C(=N\OCC(CO/N=C(\C)c1cccc(C)n1)=NO)c1cccc(C)n1 [(2E,9E)-2,10-bis(6-methylpyridin-2-yl)-4,8-dioxa-3,9-diazaundeca-2,9-dien-6-one oxime]

logP (value marked [b]): 4.51^[b]
SMILES: CC(=NOCCCCCCON=C(C)c1ccnc(C)n1)c1cccc(C)n1 [compound 348]

logP [1]: 3.44^[b]
SMILES: CC(=NOCC1(CON=C(C)c2cccc(C)n2)CC1)c1cccc(C)n1 [Compound 15]

logP (value marked [b]): 4.48^[b]
logP (value marked [c]): 7.23^[c]
SMILES: CCCC(CON=C(C)c1ccc(C)c(C)n1)CON=C(C)c1ccc(C)c(C)n1 (stereo not drawn) [Compound 316]

logP (value marked [b]): 2.08^[b] (isomer A)
SMILES: CC(=NOCC(C)CON=C(C)c1nc(C)ccc1C)c1nc(C)ccc1C (single isomer, unassigned) [compound 268]

logP (method marked [b] in Table 1): 4.51^[b]
SMILES: C/C(=N\OCC1(CO/N=C(\C)c2ccc(C)c(C)n2)CC(c2cccc(Cl)c2)=NO1)c1ccc(C)c(C)n1 [compound 635]

logP (value marked [b]): 3.65^[b] (isomer A)
SMILES: CC(=NOCCCCON=C(c1cccc(C)n1)C(C)C)c1cccc(C)n1 (single isomer, unassigned) [compound 525]

logP (value marked [b]): 4.91^[b]
logP (value marked [c]): 7.36^[c]
SMILES: CC(=NOCC(CON=C(C)c1ccc(C)c(C)n1)C(C)(C)C)c1ccc(C)c(C)n1 (stereo not drawn) [Compound 317]

logP (value marked [a]): 6.65^[a]
logP (value marked [b]): 6.65^[b]
logP (value marked [c]): 7.01^[c]
SMILES: CC[Si](CC)(CON=C(C)c1cccc(C)n1)CON=C(C)c1cccc(C)n1 [Compound 782]

logP (value marked [b]): 3.24^[b]
SMILES: C=C(CON=C(C)c1cccc(C)n1)CON=C(C)c1ccnc(C)n1 [compound 360]

logP (value marked [a]): 2.25^[a]
SMILES: C=C(CON=C(OCC)c1cccc(C)n1)CON=C(OCC)c1ccc(C)c(C)n1 [Compound 843]

logP (value marked [a]): 3.8^[a]
SMILES: C=C(CON=C(C)c1cccc(C)n1)CON=C(Cl)c1ccc(C)c(C)n1 [Compound 807]

logP [5]: 3.57^a]
SMILES: CC(=NOCC(C)CON=C(C)c1ccnc(C)n1)c1ccnc(C)n1 (stereo not drawn) [compound 168]

chromatographic logP: 3.33
SMILES: CC(=NOCC(C)(C)CO/N=C(\C)c1cccc(C)n1)c1cc(C)cc(C)n1 [(1E/Z)-1-(4,6-dimethylpyridin-2-yl)ethanone O-[2,2-dimethyl-3-({[(1E)-1-(6-methylpyridin-2-yl)ethylidene]amino}oxy)propyl]oxime]

logP [5]: 2.66^[a]
SMILES: CC(=NOCCCON=C(C)c1cccc(C)n1)c1cccc(C)n1 [Compound 14]

logP (value marked [a]): 2.38^[a]
SMILES: C=C(CON=C(C)c1cccc(C)n1)CON=C(N)c1ccc(C)c(C)n1 [compound 808]

logP (method marked [b] in Table 1): 4.3^[b]
SMILES: C/C(=N\OCC1(CO/N=C(\C)c2ccc(C)c(C)n2)CC(c2ccccc2Cl)=NO1)c1ccc(C)c(C)n1 [compound 634]

logP (value marked [b]): 1.80^[b]
SMILES: CC(=NOCC(C)CON=C(C)c1cccc(C)n1)c1ccnc(C)c1 (stereo not drawn) [compound 432]

logP (value marked [b]): 4.72^[b] (isomer B)
SMILES: CC(=NOCCCCON=C(c1cccc(C)n1)C(C)C)c1cccc(C)n1 [compound 334]

logP [1]: 3.36^[b]
SMILES: C=C(CON=C(C)c1ccc(C)cn1)CON=C(C)c1ccc(C)cn1 [compound 152]

logP (method marked [b] in Table 1): 2.57^[b]
logP (method marked [c] in Table 1): 4.46^[c]
SMILES: CCC(CON=C(C)c1nc(C)ccc1C)CON=C(C)c1nc(C)ccc1C (single isomer, unassigned) [compound 750]
